According to article doi:10.1101/2023.11.24.568596v1 (biorxiv, 2023):
Blank lines part the entries; values can stand above or below the molecule they belong to.

Columns and labels:
Details in all cases: binder
MAP2K6 = target: T1, MAP2K6 (Homo sapiens, UniProt P52564)
T1 sequence (P52564 1-334): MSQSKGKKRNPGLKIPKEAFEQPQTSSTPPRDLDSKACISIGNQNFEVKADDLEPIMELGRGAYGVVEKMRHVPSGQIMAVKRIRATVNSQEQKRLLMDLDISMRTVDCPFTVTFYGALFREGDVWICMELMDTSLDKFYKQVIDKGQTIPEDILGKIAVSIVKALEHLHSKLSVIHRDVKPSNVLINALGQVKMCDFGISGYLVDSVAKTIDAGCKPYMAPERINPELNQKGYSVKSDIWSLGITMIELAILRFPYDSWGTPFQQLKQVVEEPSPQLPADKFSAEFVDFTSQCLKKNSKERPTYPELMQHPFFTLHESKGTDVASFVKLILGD

CaMKK2 = CaMKK2 (Homo sapiens, UniProt Q96RR4)
Chain of CaMKK2 (Q96RR4 whole entry): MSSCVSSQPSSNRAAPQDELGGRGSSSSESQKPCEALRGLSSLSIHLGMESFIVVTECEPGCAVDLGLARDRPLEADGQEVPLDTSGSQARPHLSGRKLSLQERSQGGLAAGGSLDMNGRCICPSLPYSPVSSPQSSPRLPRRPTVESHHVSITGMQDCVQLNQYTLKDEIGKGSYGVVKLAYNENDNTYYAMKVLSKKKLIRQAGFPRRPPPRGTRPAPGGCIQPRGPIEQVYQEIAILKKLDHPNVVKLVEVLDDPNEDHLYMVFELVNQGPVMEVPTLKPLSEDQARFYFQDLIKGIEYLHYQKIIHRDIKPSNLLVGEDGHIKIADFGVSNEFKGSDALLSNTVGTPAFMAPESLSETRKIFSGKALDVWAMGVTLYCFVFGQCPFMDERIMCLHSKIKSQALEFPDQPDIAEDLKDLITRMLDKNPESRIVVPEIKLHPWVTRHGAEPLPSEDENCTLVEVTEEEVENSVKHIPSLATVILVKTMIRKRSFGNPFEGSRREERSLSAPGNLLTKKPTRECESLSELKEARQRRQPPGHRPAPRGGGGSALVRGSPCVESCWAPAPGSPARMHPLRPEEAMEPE

FLT1 = FLT1 (Homo sapiens, UniProt P17948)
Chain of FLT1 (P17948 whole entry): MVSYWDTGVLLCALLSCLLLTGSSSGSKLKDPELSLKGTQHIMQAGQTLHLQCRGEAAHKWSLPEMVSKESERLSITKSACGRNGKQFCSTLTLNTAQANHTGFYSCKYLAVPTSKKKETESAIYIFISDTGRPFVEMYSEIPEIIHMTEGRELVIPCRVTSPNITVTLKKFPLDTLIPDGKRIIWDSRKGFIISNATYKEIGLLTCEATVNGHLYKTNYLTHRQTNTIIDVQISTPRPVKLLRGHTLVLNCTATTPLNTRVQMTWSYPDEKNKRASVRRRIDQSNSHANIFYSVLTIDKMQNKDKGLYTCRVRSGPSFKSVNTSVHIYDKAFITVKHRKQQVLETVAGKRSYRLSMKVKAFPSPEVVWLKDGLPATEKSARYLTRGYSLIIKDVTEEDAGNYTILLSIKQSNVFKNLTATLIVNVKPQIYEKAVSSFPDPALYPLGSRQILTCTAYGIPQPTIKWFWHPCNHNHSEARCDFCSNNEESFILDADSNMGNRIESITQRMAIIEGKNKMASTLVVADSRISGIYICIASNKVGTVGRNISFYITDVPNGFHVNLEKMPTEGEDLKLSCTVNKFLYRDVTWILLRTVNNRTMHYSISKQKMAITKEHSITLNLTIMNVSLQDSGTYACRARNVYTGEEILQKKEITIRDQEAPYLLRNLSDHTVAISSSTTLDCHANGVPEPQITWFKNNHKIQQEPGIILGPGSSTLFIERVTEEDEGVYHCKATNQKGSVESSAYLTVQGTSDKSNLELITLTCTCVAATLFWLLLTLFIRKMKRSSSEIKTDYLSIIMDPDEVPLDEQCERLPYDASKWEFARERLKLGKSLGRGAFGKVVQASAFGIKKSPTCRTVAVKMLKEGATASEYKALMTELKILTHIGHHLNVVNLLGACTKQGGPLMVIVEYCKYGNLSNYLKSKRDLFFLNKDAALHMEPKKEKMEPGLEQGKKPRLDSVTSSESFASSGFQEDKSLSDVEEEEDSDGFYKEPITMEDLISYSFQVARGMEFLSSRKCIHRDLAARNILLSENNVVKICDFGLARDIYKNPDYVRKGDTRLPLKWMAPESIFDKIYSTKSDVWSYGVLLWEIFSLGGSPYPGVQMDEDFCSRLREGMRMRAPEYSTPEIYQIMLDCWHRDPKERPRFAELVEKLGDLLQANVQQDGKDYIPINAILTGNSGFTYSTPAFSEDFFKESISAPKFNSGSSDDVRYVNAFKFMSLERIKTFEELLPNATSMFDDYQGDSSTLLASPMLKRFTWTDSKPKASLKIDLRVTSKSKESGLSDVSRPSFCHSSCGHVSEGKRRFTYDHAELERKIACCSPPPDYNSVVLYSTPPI

DCAMKL1 = target: T2, DCAMKL1 (Homo sapiens, UniProt O15075)
T2 sequence (O15075 1-740): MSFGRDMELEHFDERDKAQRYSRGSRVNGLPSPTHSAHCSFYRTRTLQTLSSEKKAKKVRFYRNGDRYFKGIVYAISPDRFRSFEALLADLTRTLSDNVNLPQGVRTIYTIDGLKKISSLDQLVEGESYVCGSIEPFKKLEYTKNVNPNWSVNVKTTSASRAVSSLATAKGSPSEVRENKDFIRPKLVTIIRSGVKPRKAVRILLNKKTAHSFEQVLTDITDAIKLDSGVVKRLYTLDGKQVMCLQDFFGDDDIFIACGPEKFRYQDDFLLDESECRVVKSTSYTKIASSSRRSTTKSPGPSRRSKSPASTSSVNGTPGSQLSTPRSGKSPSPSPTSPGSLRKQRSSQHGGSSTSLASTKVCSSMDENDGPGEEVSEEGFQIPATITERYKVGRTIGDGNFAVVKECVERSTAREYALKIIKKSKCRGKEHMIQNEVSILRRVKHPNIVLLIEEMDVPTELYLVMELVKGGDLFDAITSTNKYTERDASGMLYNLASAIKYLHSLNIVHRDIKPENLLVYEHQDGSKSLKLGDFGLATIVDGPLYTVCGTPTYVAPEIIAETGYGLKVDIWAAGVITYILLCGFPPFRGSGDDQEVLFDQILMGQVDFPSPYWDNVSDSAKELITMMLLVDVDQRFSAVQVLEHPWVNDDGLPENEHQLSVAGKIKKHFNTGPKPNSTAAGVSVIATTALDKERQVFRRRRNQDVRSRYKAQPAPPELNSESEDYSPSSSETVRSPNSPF

AurA = target: T3, AurA (Homo sapiens, UniProt O14965)
T3 sequence (O14965 1-403): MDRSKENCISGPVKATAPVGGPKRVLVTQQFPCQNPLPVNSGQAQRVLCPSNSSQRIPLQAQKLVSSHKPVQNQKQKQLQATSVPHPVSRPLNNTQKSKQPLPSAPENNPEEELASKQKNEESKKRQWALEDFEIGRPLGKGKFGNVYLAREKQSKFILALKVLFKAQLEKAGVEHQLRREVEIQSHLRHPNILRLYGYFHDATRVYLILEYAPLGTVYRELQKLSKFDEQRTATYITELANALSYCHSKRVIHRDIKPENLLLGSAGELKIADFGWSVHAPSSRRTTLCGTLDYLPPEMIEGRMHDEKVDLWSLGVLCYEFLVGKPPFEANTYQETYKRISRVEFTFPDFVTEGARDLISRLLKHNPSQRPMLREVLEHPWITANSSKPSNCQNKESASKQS

CaMK2b = CaMK2b (Homo sapiens, UniProt Q13554)
Chain of CaMK2b (Q13554 whole entry): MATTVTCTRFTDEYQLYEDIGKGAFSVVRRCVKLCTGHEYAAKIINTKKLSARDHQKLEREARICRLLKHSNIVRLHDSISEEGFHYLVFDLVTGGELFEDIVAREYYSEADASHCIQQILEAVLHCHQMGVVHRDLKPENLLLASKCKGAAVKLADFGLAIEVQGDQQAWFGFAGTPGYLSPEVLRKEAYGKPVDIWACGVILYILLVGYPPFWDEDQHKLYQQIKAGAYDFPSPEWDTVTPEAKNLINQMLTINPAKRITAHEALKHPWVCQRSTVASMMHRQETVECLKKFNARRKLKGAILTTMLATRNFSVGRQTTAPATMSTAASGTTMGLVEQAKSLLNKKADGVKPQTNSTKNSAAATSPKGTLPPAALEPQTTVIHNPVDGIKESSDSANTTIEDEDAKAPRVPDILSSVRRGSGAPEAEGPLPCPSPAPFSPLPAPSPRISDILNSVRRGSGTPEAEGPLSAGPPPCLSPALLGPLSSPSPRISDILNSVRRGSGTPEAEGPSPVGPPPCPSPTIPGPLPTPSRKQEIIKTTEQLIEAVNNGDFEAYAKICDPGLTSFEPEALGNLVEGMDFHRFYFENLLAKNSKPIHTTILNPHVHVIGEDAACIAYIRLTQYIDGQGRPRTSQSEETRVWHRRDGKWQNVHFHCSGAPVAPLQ

Haspin = target: T4, Haspin (Homo sapiens, UniProt Q8TF76)
T4 sequence (Q8TF76 1-798): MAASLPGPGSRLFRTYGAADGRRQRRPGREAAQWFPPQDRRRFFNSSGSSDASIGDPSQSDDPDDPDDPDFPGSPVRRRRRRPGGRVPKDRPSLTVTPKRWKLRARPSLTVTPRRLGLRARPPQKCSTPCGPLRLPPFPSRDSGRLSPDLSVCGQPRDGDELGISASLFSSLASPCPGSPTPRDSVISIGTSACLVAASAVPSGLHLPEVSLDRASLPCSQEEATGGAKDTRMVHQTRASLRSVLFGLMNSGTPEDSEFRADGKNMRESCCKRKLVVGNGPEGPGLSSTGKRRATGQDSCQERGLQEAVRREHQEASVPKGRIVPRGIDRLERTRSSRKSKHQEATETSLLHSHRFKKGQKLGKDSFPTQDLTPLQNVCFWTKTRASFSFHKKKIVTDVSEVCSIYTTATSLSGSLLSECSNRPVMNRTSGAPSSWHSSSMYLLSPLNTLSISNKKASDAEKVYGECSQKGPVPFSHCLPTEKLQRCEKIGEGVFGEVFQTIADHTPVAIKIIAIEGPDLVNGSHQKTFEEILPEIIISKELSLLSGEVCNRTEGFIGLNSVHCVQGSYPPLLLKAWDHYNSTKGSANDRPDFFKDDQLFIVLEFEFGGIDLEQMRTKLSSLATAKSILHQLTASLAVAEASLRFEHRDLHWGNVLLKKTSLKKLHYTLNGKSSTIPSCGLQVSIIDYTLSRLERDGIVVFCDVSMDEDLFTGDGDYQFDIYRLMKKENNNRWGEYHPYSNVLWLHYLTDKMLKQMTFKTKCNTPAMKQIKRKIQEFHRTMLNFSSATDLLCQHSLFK

ΔTm MRLW5 (20) (MAP2K6): 5.7 °C
ΔTm MRLW5 (20) (CaMKK2): 1.4 °C
ΔTm MRLW5 (20) (FLT1): 2.2 °C
ΔTm MRLW5 (20) (DCAMKL1): 1.0 °C
ΔTm MRLW5 (20) (AurA): 11.8 °C
ΔTm MRLW5 (20) (CaMK2b): -1.3 °C
ΔTm MRLW5 (20) (Haspin): -0.4 °C
Compound: CNc1ncc2cc(-c3ccc(-c4cccc(C)n4)cc3Cl)c(=O)n(CCCCN)c2n1 [compound 20, MRLW5]

ΔTm 22 (MAP2K6): 5.6 °C
ΔTm 22 (CaMKK2): 2.3 °C
ΔTm 22 (FLT1): 2.6 °C
ΔTm 22 (DCAMKL1): 0.7 °C
ΔTm 22 (AurA): 11.4 °C
ΔTm 22 (CaMK2b): -0.9 °C
ΔTm 22 (Haspin): -1.2 °C
Compound: CNc1ncc2cc(-c3ccc(-c4cccc(C)n4)cc3Cl)c(=O)n(CCC3CCNCC3)c2n1 [compound 22, 6-(2-Chloro-4-(6-methylpyridin-2-yl)phenyl)-2-(methylamino)-8-(2-(piperidin-4-yl)ethyl)pyrido[2,3-d]pyrimidin-7(8H)-one]

ΔTm 23 (MAP2K6): 8.3 °C
ΔTm 23 (CaMKK2): 4.9 °C
ΔTm 23 (FLT1): 4.9 °C
ΔTm 23 (DCAMKL1): 4.6 °C
ΔTm 23 (AurA): 13.1 °C
ΔTm 23 (CaMK2b): 0.2 °C
ΔTm 23 (Haspin): 1.5 °C
Compound: CNc1ncc2cc(-c3ccc(-c4cccc(C)n4)cc3Cl)c(=O)n(C[C@H]3CC[C@H](N)CC3)c2n1 [compound 23, 23]

ΔTm MR24 (24) (MAP2K6): 2.8 °C
ΔTm MR24 (24) (CaMKK2): 0.2 °C
ΔTm MR24 (24) (FLT1): 1.0 °C
ΔTm MR24 (24) (DCAMKL1): -2.0 °C
ΔTm MR24 (24) (AurA): -1.7 °C
ΔTm MR24 (24) (CaMK2b): -0.8 °C
ΔTm MR24 (24) (Haspin): -1.4 °C
Compound: Cc1cccc(-c2ccc(-c3cc4cnc(NC(CO)CO)nc4n(CCCCN)c3=O)c(Cl)c2)n1 [compound 24, 8-(4-Aminobutyl)-6-(2-chloro-4-(6-methylpyridin-2-yl)phenyl)-2-((1,3-dihydroxypropan-2-yl)amino)pyrido[2,3-d]pyrimidin-7(8H)-one]

ΔTm 25 (MAP2K6): 8.3 °C
ΔTm 25 (CaMKK2): 3.3 °C
ΔTm 25 (FLT1): 3.5 °C
ΔTm 25 (DCAMKL1): 0.1 °C
ΔTm 25 (AurA): 1.8 °C
ΔTm 25 (CaMK2b): -0.1 °C
ΔTm 25 (Haspin): 1.9 °C
Compound: Cc1cccc(-c2ccc(-c3cc4cnc(NCCCc5ccc(N)cc5)nc4n(CCCCN)c3=O)c(Cl)c2)n1 [compound 25, 8-(4-Aminobutyl)-2-((3-(4-aminophenyl)propyl)amino)-6-(2-chloro-4-(6-methylpyridin-2-yl)phenyl)pyrido[2,3-d]pyrimidin-7(8H)-one]

ΔTm MR26 (26) (MAP2K6): 3.1 °C
ΔTm MR26 (26) (CaMKK2): 1.5 °C
ΔTm MR26 (26) (FLT1): 2.7 °C
ΔTm MR26 (26) (DCAMKL1): -2.0 °C
ΔTm MR26 (26) (AurA): -0.9 °C
ΔTm MR26 (26) (CaMK2b): -0.3 °C
ΔTm MR26 (26) (Haspin): -1.5 °C
Compound: Cc1cccc(-c2ccc(-c3cc4cnc(NCCCN5CCOCC5)nc4n(CCCCN)c3=O)c(Cl)c2)n1 [compound 26, MR26]
